Key:
ciliary motility = details: cited from earlier work
[1] = aqueous solution at physiologic pH; cited from earlier work
[2] = Treatment of radiation-induced lung damage using nebulized enoxaparin and N-acetylcysteine; assay type: in vivo, human
Procedure: This example describes treatment of radiation-induced lung damage using nebulized enoxaparin and N-acetylcysteine. A patient with unresectable lung cancer, such as locally advanced or metastatic stage III/oligometastatic IV non-small cell lung carcinoma, who has received radiation therapy is administered nebulized enoxaparin via inhalation. The enoxaparin is purified to remove elemental impurities, as described in EXAMPLE 1, and formulated in water at a concentration of 100 mg/mL for a nebulized composition as described in EXAMPLE 2. A dose of either 0.5 mg enoxaparin per kg patient weight (mg/kg), 1 mg/kg, or 2 mg/kg of the aqueous enoxaparin formulation is nebulized and administered to the subject via inhalation every 12 hours for 14 days, followed by 14 days of no enoxaparin treatment. N-acetylcysteine is administered by inhalation via nebulization at 600 mg per dose 30 minutes after each dose of enoxaparin. The 28-day treatment cycle begins 4-6 weeks after completion of radiation therapy, and the treatment cycle is repeated for up to 6 cycles in the absence of disease progression or unacceptable toxicity. The patient continues to receive best supportive care for the lung cancer (e.g., chemotherapy therapy) while undergoing enoxaparin treatment.
(§1) Additionally, the enoxaparin therapy may reduce the recurrence of the lung cancer by slowing cancer progression through inhibition of mutagenic proliferation, adhesion, angiogenesis, migration, and invasion of cancer cells.

[3] = Treatment of chemotherapy-induced lung damage using nebulized heparin and N-acetylcysteine; assay type: in vivo, human
Procedure: This example describes treatment of chemotherapy-induced lung damage using nebulized heparin and N-acetylcysteine. A patient with unresectable lung cancer, such as locally advanced or metastatic stage III/oligometastatic IV non-small cell lung carcinoma, who is undergoing chemotherapy therapy with bleomycin, carmustine, lomustine, busulfan, daunorubicin, doxorubicin, or idarubicin is administered nebulized enoxaparin via inhalation. The enoxaparin is purified to remove elemental impurities, as described in EXAMPLE 1, and formulated in water at a concentration of 100 mg/mL for a nebulized composition as described in EXAMPLE 2. A dose of either 0.5 mg enoxaparin per kg patient weight (mg/kg), 1 mg/kg, or 2 mg/kg of the aqueous enoxaparin formulation is nebulized and administered to the subject via inhalation every 12 hours for 14 days, followed by 14 days of no enoxaparin treatment. N-acetylcysteine is administered by inhalation via nebulization at 600 mg per dose 30 minutes after each dose of enoxaparin. The 28-day treatment cycle is repeated for up to 6 cycles in the absence of disease progression or unacceptable toxicity. The patient continues to receive best supportive care for the lung cancer (e.g., chemotherapy therapy) while undergoing enoxaparin treatment.
as §1

[4] = same regimen, after radiation therapy
[5] = same regimen, during chemotherapy

2-alkyl-4-hydroxyquinolines [pyo compound]
concentration producing ciliostasis / inhibiting ciliary motility (ciliary motility; ciliostatic factors from Pseudomonas aeruginosa): 50 µg/mL

CCN(CC)/[N+]([O-])=N/O.CCNCC [diethylamine/NO]
time scale of NO release [1]: < 3 min

NCCN(CCN)/[N+]([O-])=N/O [diethylenetriamine/NO]
time scale of NO release [1]: approximately 20 hours

enoxaparin
development of radiation-induced pneumonitis ([2]; patient with unresectable lung cancer after radiation therapy, 0.5, 1 or 2 mg/kg inhaled every 12 hours for 14 days, N-acetylcysteine 600 mg after each dose): treats, prevents, or slows the development
airway inflammation [2, 4]: decreases airway inflammation
coagulation activation and pulmonary venous thromboembolism [2, 4]: prevents coagulation activation and pulmonary venous thromboembolism
release of inflammatory cytokines, such as IL-6 [2, 4]: inhibits release
development of chemotherapy-induced pneumonitis ([3]; patient with unresectable lung cancer undergoing chemotherapy, 0.5, 1 or 2 mg/kg inhaled every 12 hours for 14 days, N-acetylcysteine 600 mg after each dose): treats, prevents, or slows the development
airway inflammation [3, 5]: decreases airway inflammation
coagulation activation and pulmonary venous thromboembolism [3, 5]: prevents coagulation activation and pulmonary venous thromboembolism
release of inflammatory cytokines, such as IL-6 [3, 5]: inhibits release

rhamnolipid
effect on cilia (ciliary motility; limited exposure of tracheal explants): resulted in ciliostasis

Source: patent US20260034166A1, “HEPARIN COMPOSITIONS FOR TREATMENT OF LUNG DAMAGE AND METHODS OF USE THEREOF” (Atossa Therapeutics, Inc., priority 2022, published 2026)
